Results taken from ChEMBL document CHEMBL3639107, “Dioxa-bicyclo[3.2.1]octane-2,3,4-triol derivatives” (2014).
Several values for one entry are separate records, joined by “and”; a condition that tells them apart may be missing. Equal entries are not always repeated.

Biological target: T1, Sodium/glucose cotransporter 2 (Homo sapiens, UniProt P31639)
T1 sequence (P31639 whole entry): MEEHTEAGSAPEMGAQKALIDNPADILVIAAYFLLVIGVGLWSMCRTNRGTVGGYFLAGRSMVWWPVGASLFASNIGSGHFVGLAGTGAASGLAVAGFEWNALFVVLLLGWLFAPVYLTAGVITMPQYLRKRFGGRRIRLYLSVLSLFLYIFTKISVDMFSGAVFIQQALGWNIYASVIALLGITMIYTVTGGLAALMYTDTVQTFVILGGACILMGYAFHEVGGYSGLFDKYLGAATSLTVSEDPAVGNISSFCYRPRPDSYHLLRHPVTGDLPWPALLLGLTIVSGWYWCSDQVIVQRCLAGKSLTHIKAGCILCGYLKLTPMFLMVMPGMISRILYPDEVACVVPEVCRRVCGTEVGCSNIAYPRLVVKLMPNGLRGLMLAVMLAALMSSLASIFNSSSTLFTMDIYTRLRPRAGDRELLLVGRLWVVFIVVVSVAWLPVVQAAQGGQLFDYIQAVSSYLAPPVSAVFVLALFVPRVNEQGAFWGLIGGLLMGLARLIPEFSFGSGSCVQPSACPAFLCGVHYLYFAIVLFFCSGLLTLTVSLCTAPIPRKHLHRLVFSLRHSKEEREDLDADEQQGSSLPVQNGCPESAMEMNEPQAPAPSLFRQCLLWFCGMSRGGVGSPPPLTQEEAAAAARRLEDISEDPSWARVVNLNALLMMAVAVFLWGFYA
Experiment: Biological Assays: The SGLT2 functional assay was designed to detect the inhibition of methyl-alpha-D glucopyranoside (AMG a non-metabolizable form of glucose) uptake via the SGLT2 transporter. The SGLT2 transporter recovers glucose from the proximal tubules of the kidney; its inhibition results in sugar wasted in the urine. The positive control compound, Phlorizin, is a known inhibitor of glucose uptake for SGLT2 and was used for comparing the high percent effect of SGLT2 inhibition of the test compounds.

In the case of CCOc1ccc(Cc2cc([C@]34OC[C@](COC(C)=O)(O3)[C@@H](O)[C@H](O)[C@H]4O)ccc2Cl)cc1, the IC50 is reported as 5 nM and 6.7 nM.
